{"source": "patent EP1058679B1", "conditions": "from CC[Si](CC)(CC)O[C@@H](CC(=O)O)C(C)(C)C(=O)[C@H](C)[C@@H](OC(=O)OCC(Cl)(Cl)Cl)[C@@H](C)CCC/C(C)=C\\C[C@H](O)/C(C)=C/c1csc(C)n1; ester bond; 2,4,6-trichlorobenzoyl chloride, Et3N, DMAP; toluene; 0.79 mM; 25.0 °C; 3.5 h"}
{"smiles": "CC[Si](CC)(CC)O[C@H]1CC(=O)O[C@H](/C(C)=C/c2csc(C)n2)C/C=C(/C)CCC[C@H](C)[C@H](OC(=O)OCC(Cl)(Cl)Cl)[C@@H](C)C(=O)C1(C)C", "values": [{"measurement": "ring closure, yield of all isomers", "value": 78, "unit": "%"}]}
